From publication PMC12490239, “Combining BET inhibition with SMAC mimetics restricts tumor growth and triggers immune surveillance in preclinical cancer models” (Cell Reports Medicine, 2025)

Legend:
Experiment in all cases: cells
Set-up in all cases: CellTiter-Glo 2.0 luminescence proliferation/viability assay, single agents, human tumour cell line panel
SNU1235 = settings: 96 h; single agent; read-out: IC50 SMACm
Protocol: (§1) The effect of BETi, SMACm alone or in combination cell viability was determined using a 96-h CellTiter-Glo2.0 proliferation assay. Cells were seeded in assay plates and placed at 37°C with 5% CO2 for twenty-four hours before treatment. Compounds were added in triplicate in gradients of increasing concentrations, in case of SMACm ranging between 4.5 nM and 10 μM and in case of BETi between 1.4 nM and 3 μM. DMSO served as control. Cell viability was measured by luminescence analysis using luminescence read on Envision plate readers (PerkinElmer). An additional set of colorectal cancer cell lines was assayed with technical duplicates and experimental triplicates. Cell viability was measured by luminescence analysis using luminescence read on Tecan Plate reader. The effects of drug combinations were analyzed using the Bliss Independence Model.[34] Synergy score was calculated by the average of 3 highest and 3 lowest BLISS Gaps between predicted and measured POC (Percentage of Control) values. To investigate the synergistic interaction between BI 894999 (hereafter, BETi) and BI 891065 (hereafter, SMACm), we evaluated the in vitro anti-tumor effect of the single agents or the combination in a large panel of 151 cancer cell lines of different tissue origin: CRC, gastric cancer, non-small cell lung cancer (NSCLC), and pancreatic carcinoma (Figures 1C–1F). As a mono-agent, SMACm was able to inhibit cell proliferation only in a limited number of tested cell lines (4%, Table S2). Most of the cell lines responded to inhibition by BETi, with sensitivity ranging from 10 to 100 nM (Figure 1C). Bliss Gap analysis, performed to analyze the effect of the BETi+SMACm combination on tumor cell growth (Figures 1D–1F), unveiled potent synergistic activity across the cell models tested (Figure 1E), independent of tumor type (Figure 1F).  Figure 1 The combinatorial effect of BI 894999 and BI 891065 across a panel of human tumor cell lines (A) Selectivity and potency profiles of BI 891065. Top left, structure of BI 891065. Top right, IC50 values for BI 891065 inhibition of cIAP1, cIAP2, and XIAP. Bottom, physicochemical properties of […]. (B) WES (Simple Western System) analysis of cIAP1, cIAP2, and XIAP levels upon treatment of HT-29 cells with indicated concentrations of BI 891065 for 6 h (C) IC50 values determined in cell proliferation assays (n = 151) individually for BETi BI 894999 and SMACm BI 891065. Each point represents a cell line tested. (D) Example of proliferation assay for synergy analysis in LoVo cell line; shown is combination plate map matrix and the cell growth inhibition (CGI) at the indicated concentrations; CGI values < 100%: tumor cell growth, CGI 100%: tumor cell stasis, and CGI > 100%: tumor cell killing. (E) Synergy scores across the tested panel of cell lines obtained using Bliss synergy analysis. (F) Violin plots showing the synergy scores for BETi and SMACm combination across indications. N is the number of cell lines tested in each indication group.

SW900 = settings: Homo sapiens, SW900, 96 h; single agent; read-out: IC50 SMACm
Protocol: as §1

HCT-15 = settings: Homo sapiens, HCT-15, 96 h; single agent; read-out: IC50 SMACm
Protocol: as §1

DLD-1 = settings: Homo sapiens, DLD-1, 96 h; single agent; read-out: IC50 SMACm
Protocol: as §1

KP-2 = settings: 96 h; single agent; read-out: IC50 SMACm
Protocol: as §1

HRA16 = settings: 96 h; single agent; read-out: IC50 SMACm
Protocol: as §1

KE-39 = settings: 96 h; single agent; read-out: IC50 SMACm
Protocol: as §1

HROC374 = settings: 96 h; single agent; read-out: IC50 SMACm
Protocol: as §1

COLO-205 = settings: Homo sapiens, COLO 205, 96 h; single agent; read-out: IC50 SMACm
Protocol: as §1

RERF-LC-Ad2 = settings: RERF-LC-Ad2, 96 h; single agent; read-out: IC50 SMACm
Protocol: as §1

KM12SM = settings: 96 h; single agent; read-out: IC50 SMACm
Protocol: as §1

NCI-H747 = settings: Homo sapiens, NCI-H747, 96 h; single agent; read-out: IC50 SMACm
Protocol: as §1

HCC1438 = settings: 96 h; single agent; read-out: IC50 SMACm
Protocol: as §1

LoVo = settings: Homo sapiens, LoVo, 96 h; single agent; read-out: IC50 SMACm
Protocol: as §1

Gp2D = settings: GP2d, 96 h; single agent; read-out: IC50 SMACm
Protocol: as §1

`CN[C@@H](C)C(=O)Nc1ccc(-c2c(-c3cccnc3OC)nc3cc(C)ccn23)c(C#Cc2ccc3c(C)nccc3c2)n1` [SMACm, BI 891065] was tested, and the IC50 (SNU1235) was 2140 nM, the IC50 (SW900) was 1780 nM and the IC50 (HCT-15) was 2820 nM. For the same compound, the IC50 (DLD-1) was 5.19 µM, the IC50 (KP-2) was 4.62 µM and the IC50 (HRA16) was 3.99 µM. It also gave an IC50 (KE-39) of 3.86 µM, an IC50 (HROC374) of 3.34 µM and an IC50 (COLO-205) of 4.99 µM. The IC50 (RERF-LC-Ad2) was 2520 nM, the IC50 (KM12SM) was 4.31 µM and the IC50 (NCI-H747) was 5.06 µM. It also gave an IC50 (HCC1438) of 2290 nM, an IC50 (LoVo) of 4.76 µM and an IC50 (Gp2D) of 3.62 µM.
